Experimental data from ChEMBL document CHEMBL4325906, “Anti-inflammatory activity of triazine derivatives: A systematic review” (Eur J Med Chem, 2019).

How the values were obtained:
[1] = In vitro anti-inflammatory activity at 100 mg/ml incubated for 15 mins followed by heating for 10 mins and cooling by albumin denaturation assay relative to control
[2] = Selectivity ratio of IC50 for ovine COX1 to IC50 for recombinant human COX2
[3] = biological target: T1, Prostaglandin G/H synthase 2 (Homo sapiens, UniProt P35354); experiment: Inhibition of recombinant human COX2 assessed as decrease in PGE2 release after 10 mins by ELISA
T1 sequence (P35354 whole entry): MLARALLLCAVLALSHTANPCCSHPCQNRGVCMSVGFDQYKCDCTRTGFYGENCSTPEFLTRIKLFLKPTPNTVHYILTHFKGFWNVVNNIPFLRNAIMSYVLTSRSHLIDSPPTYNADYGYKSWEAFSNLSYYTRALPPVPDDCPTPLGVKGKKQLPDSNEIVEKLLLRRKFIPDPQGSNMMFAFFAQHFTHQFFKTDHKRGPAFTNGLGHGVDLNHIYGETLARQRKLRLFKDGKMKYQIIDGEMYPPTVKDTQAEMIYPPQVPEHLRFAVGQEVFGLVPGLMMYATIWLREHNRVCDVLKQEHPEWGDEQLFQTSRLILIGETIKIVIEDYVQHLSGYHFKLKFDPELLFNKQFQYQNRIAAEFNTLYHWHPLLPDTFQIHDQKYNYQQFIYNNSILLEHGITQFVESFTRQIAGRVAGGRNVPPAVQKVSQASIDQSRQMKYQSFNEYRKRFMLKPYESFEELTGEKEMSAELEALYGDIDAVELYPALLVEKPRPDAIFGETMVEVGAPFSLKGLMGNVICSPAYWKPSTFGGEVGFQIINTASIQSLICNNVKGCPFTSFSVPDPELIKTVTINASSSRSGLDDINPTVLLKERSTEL

Rattus norvegicus [4] = experiment: Anti-inflammatory activity in carrageenan-induced Swiss albino rat assessed as reduction in paw edema by measuring swelling thickness at 10 ml/kg, po pretreated for 1 hr followed by carrageenan addition and measured up to 6 hrs at 1 hr interval relative to control; assay type: functional; parameters: scale not given: the % may be the effect or the level left
Mus musculus = experiment: Anti-inflammatory activity in formalin-induced Swiss albino mouse assessed as reduction in paw edema volume at 10 mg/kg, ip pretreated for 30 mins followed by formalin addition relative to control; assay type: functional; parameters: scale not given: the % may be the effect or the level left
[5] = biological target: T2, Prostaglandin G/H synthase 2 (Homo sapiens) (UniProt P35354); conditions: Blood, at 10 µM
T2 sequence (whole entry): T1 sequence (P35354 whole entry)
Description: Inhibition of COX2 in LPS-induced human whole blood at 10 uM after 24 hrs by EIA relative to control

[6] = biological target: T1, Prostaglandin G/H synthase 2; experiment: Inhibition of COX2 (unknown origin) using arachidonic acid as substrate preincubated for 20 mins followed by substrate addition measured at 1 sec interval up to 60 secs by chemiluminescence assay
Rattus norvegicus [7] = experiment: Anti-inflammatory activity in carrageenan-induced albino rat assessed as reduction in paw edema volume at 20 umol/kg, po measured at 1 hr intervals up to 4 hrs relative to control; assay type: functional; parameters: scale not given: the % may be the effect or the level left

O=c1nc(-c2ccccc2)c(-c2ccccc2)nn1Cc1nnc(S)n1-c1ccccc1
Activity [1]: 71.9 to 79.2%

CCOC(=O)CSc1nnc(-c2ccc(S(C)(=O)=O)cc2)c(-c2ccc(OC)cc2)n1
Ratio IC50 [2]: 8.79
IC50 [3]: 10.1 µM

O=c1nc(-c2ccccc2)c(-c2ccccc2)nn1Cc1nnc(Nc2ccc(Cl)cc2)o1
Activity [1]: 71.9 to 79.2%
Activity (Rattus norvegicus [4]): 57.9 - 61.56%

Cc1ccc(-n2c(S)nnc2Cn2nc(-c3ccccc3)c(-c3ccccc3)nc2=O)cc1
Activity [1]: 71.9 to 79.2%

Cc1sc2nnn(-c3ccc(F)cc3)c(=O)c2c1C
Activity (Mus musculus): 34.12%

Cc1sc2nnn(-c3ccccc3Cl)c(=O)c2c1C
Activity (Mus musculus): 36.47%

COc1ccc(Nc2nnc(Cn3nc(-c4ccccc4)c(-c4ccccc4)nc3=O)s2)cc1
Activity [1]: 71.9 to 79.2%

CCOC(=O)CSc1nnc(-c2ccc(S(C)(=O)=O)cc2)c(-c2ccc(F)cc2)n1
Ratio IC50 [2]: 8.79
IC50 [3]: 10.1 µM

CCOC(=O)CSc1nnc(-c2ccc(S(C)(=O)=O)cc2)c(-c2ccc(Cl)cc2)n1
Ratio IC50 [2]: 8.79
IC50 [3]: 10.1 µM

O=c1nc(-c2ccccc2)c(-c2ccccc2)nn1Cc1nnc(Nc2ccc([N+](=O)[O-])cc2)o1
Activity [1]: 71.9 to 79.2%
Activity (Rattus norvegicus [4]): 57.9 - 61.56%

O=c1nc(-c2ccccc2)c(-c2ccccc2)nn1Cc1nnc(Nc2ccccc2)s1
Activity [1]: 71.9 to 79.2%

O=c1nc(-c2ccccc2)c(-c2ccccc2)nn1Cc1nnc(S)n1-c1ccc(Cl)cc1
Activity [1]: 71.9 to 79.2%

COc1ccc(-c2nnc(N/N=C/c3cccc(OC)c3OC)nc2-c2ccc(OC)cc2)cc1
inhibition [5]: 78%

Cc1sc2nnn(-c3ccccc3)c(=O)c2c1C
Activity (Mus musculus): 70.82%

COc1ccc(-c2nnc(N/N=C/c3ccc4c(c3)OCO4)nc2-c2ccc(OC)cc2)cc1
inhibition [5]: 78%

CCOC(=O)c1cnn(-c2ccccn2)c1-n1nnc2ccccc2c1=O
IC50 [6]: 20 µM

O=c1nc(-c2ccccc2)c(-c2ccccc2)nn1Cc1nnc(Nc2ccc([N+](=O)[O-])cc2)s1
Activity [1]: 71.9 to 79.2%

COc1ccc(-n2c(S)nnc2Cn2nc(-c3ccccc3)c(-c3ccccc3)nc2=O)cc1
Activity [1]: 71.9 to 79.2%

Cc1ccc(Nc2nnc(Cn3nc(-c4ccccc4)c(-c4ccccc4)nc3=O)o2)cc1
Activity [1]: 71.9 to 79.2%
Activity (Rattus norvegicus [4]): 57.9 - 61.56%

Cc1ccc(Nc2nnc(Cn3nc(-c4ccccc4)c(-c4ccccc4)nc3=O)s2)cc1
Activity [1]: 71.9 to 79.2%

O=C([O-])Cc1ccccc1Nc1c(Cl)cccc1Cl.[Na+] [DICLOFENAC SODIUM]
Activity (Mus musculus): 78.82%

COc1ccc2c(c1)c(CC(=O)O)c(C)n2C(=O)c1ccc(Cl)cc1 [INDOMETHACIN]
Activity [1]: 82.7%
Activity (Rattus norvegicus [4]): 63.56%
Activity (Rattus norvegicus [7]): 80.96%

O=c1nc(-c2ccccc2)c(-c2ccccc2)nn1Cc1nnc(Nc2ccccc2)o1
Activity [1]: 71.9 to 79.2%
Activity (Rattus norvegicus [4]): 57.9 - 61.56%

CCOC(=O)CSc1nnc(-c2ccc(S(C)(=O)=O)cc2)c(-c2ccc(C)cc2)n1
Ratio IC50 [2]: 8.79
IC50 [3]: 10.1 µM

Cc1ccc(Nc2nc(-c3ccccc3)c3c(n2)sc2c(Nc4ccc(S(=O)(=O)NC(=N)N)cc4)nnnc23)cc1
Activity (Rattus norvegicus [7]): 78.57%

Cc1ccc(-c2cc(C(F)(F)F)nn2-c2ccc(S(N)(=O)=O)cc2)cc1 [CELECOXIB]
Activity [1]: 80.3%
Activity (Rattus norvegicus [4]): 62.26%

CCOC(=O)CSc1nnc(-c2ccc(S(C)(=O)=O)cc2)c(-c2ccccc2)n1
Ratio IC50 [2]: 8.79
IC50 [3]: 10.1 µM

Cc1sc2nnn(-c3ccc(F)c(Cl)c3)c(=O)c2c1C
Activity (Mus musculus): 36.35%

Cc1ccc(Nc2nc(-c3ccccc3)c3c(n2)sc2c(Cl)nnnc23)cc1
Activity (Rattus norvegicus [7]): 82.85%

O=c1nc(-c2ccccc2)c(-c2ccccc2)nn1Cc1nnc(S)n1-c1ccc([N+](=O)[O-])cc1
Activity [1]: 71.9 to 79.2%

COc1ccc(Nc2nnc(Cn3nc(-c4ccccc4)c(-c4ccccc4)nc3=O)o2)cc1
Activity [1]: 71.9 to 79.2%
Activity (Rattus norvegicus [4]): 57.9 - 61.56%

O=c1nc(-c2ccccc2)c(-c2ccccc2)nn1Cc1nnc(Nc2ccc(Cl)cc2)s1
Activity [1]: 71.9 to 79.2%
